B1: tremelimumab: anti-CTLA4 antibody (antibody)
VH: GVVQPGRSLRLSCAASGFTFSSYGMHWVRQAPGKGLEWVAVIWYDGSNKYYADSVKGRFTISRDNSKNTLYLQMNSLRAEDTAVYYCARDPRGATLYYYYYGMDVWGQGTTVTVSSASTKGPSVFPLAPCSRSTSESTAALGCLVKDYFPEPVTVSWNSGALTSGVH
VL: PSSLSASVGDRVTITCRASQSINSYLDWYQQKPGKAPKLLIYAASSLQSGVPSRFSGSGSGTDFTLTISSLQPEDFATYYCQQYYSTPFTFGPGTKVEIKRTVAAPSVFIFPPSDEQLKSGTASVVCLLNNFYPREAKV
modifications: Tremelimumab VH; Tremelimumab VL
notes: anti-CTLA4 antibody

Tests used:
[1] = test system: CD25-positive acute myeloid leukemia (AML); assay: Phase 1 study of ADCx25, weekly fractionated dosing, in relapsed or refractory AML/ALL (Example 2); type: in vivo, human
Description: Patients with relapsed or refractory cluster of differentiation 25 (CD25)-positive acute myeloid leukemia (AML) or CD25-positive acute lymphoblastic leukemia (ALL) who have failed, or are intolerant to, any established therapy known to provide clinical benefit at current state of disease. Patients with myelodysplastic syndrome who have received treatment with hypomethylating agents and subsequently present with CD25+ AML and who failed, or are ineligible for standard induction therapy, are eligible for treatment with ADCx25.
Assessment of response to treatment with ADCX25 will be based on bone marrow samples (aspirate or biopsy, if aspirate unattainable). The activity of ADCX25 will be evaluated based on the Investigator's evaluation of the patient's response to ADCX25 as CR, CRi, PR, PD, or NR as defined herein.
ADCX25 is a sterile formulation containing PBD-conjugated HuMax®-TAC (DAR≥1), HuMax®-TAC (DAR=0), and SG3249. It is provided pre-formulated in 10-mL glass vials containing approximately 30 mg of ADCX25 per vial (deliverable volume 5.4 mL at 6 mg/mL). The appropriate quantity of ADCX25 will be diluted in 50 mL of 5% dextrose in water (D5W).
Patients will receive a 1-hour intravenous (IV) infusion of ADCX25 on Day 1 of Cycle 1. […]

MC38 cells [2] = assay: Re-challenge of tumor-free survivors from MC38 efficacy study (Example 3); type: in vivo, mouse; details: complete responders of Example 1 re-implanted with MC38 cells in contralateral flank; no treatment in re-challenge (FIG. 4)
Method: On Day 1 of the re-challenge study, 5×10^5 MC38 cells (0.1 mL suspension) were subcutaneously implanted into the left flank (contralateral to the original cell implant) and tumor growth was monitored. No ADC or anti-PD-1 treatment was administered in the rechallenge study.
Animal handling and tumour measurement was as in Example 1 unless otherwise stated.

CT26 cells = assay: Re-challenge of tumor-free survivors from CT26 efficacy study (Example 5); type: in vivo, mouse; details: complete responders of Example 4 re-implanted with CT26 cells in contralateral flank; no treatment in re-challenge (FIG. 7)
Method: On Day 1 of the re-challenge study […] CT26 cells (0.1 mL suspension) were subcutaneously implanted into the left flank (contralateral to the cell implant of example 4) and tumor growth was monitored and measured as described in example 4.
No treatment was administered in the re-challenge study.

MC38 cells [3] = assay: MC38 efficacy with CD8+ T-cell depletion by anti-CD8 (Example 6); type: in vivo, mouse; details: CD8+ T-cells depleted with anti-CD8-2.43 antibody (FIG. 8, FIG. 9)
Description: Treatment may cause partial regression (PR) or complete regression (CR) of the tumor in an animal.
In a PR response, the tumor volume is 50% or less of its Day 1 volume for three consecutive measurements during the course of the study, and equal to or greater than 13.5 mm^3 for one or more of these three measurements.
In a CR response, the tumor volume is less than 13.5 mm^3 for three consecutive measurements during the study.
Any animal with a CR response at the end of the study was additionally classified as a tumor-free survivor (TFS).
Animals were scored only once during the study for a PR or CR event and only as CR if both PR and CR criteria were satisfied.
The Coefficient of Drug Interaction (CDI) (11) in were assessed for subadditive, additive, or supra-additive (synergism) properties on Day 21, the last day all evaluable animals remained on study.
The CDI was determined according to the equation below:
Where, • x=mean tumor volume • AB=xAB/xC • A=xA/xC • B=xB/xC […]
On the day of implant 5×10^5 MC38 cells (0.1 mL suspension) were subcutaneously implanted into the right flank of each test animal. Tumors were monitored as their volumes approached the target range of 80-120 mm^3. […]
Tumors were measured twice per week until the study was ended (day29 for anti-CD8+surADCx25 and anti-CD8+anti-PD1+surADCx25 groups; day 44 for surADCx25 alone and surADCx25+anti-CD8). […]

[4] = test system: selected advanced solid tumors; assay: Phase 1b dose-escalation study of Camidanlumab Tesirine in advanced solid tumors (Example 9); type: in vivo, human
Description: This is a report of preliminary data from a Phase 1b trial of Camidanlumab Tesirine (NCT03621982; ADC Therapeutics) in patients (pt) with selected advanced solid tumors […] (AST) who have failed existing therapies.
This multicenter, open-label, dose-escalation (part 1), and dose-expansion (part 2) study is currently enrolling subjects (aged≥18 years) with selected AST. The primary objective is to evaluate the safety and tolerability and to identify the recommended dose. Secondary objectives are to assess preliminary antitumor activity, pharmacokinetics (PK), and immunogenicity.
Subjects receive 1-hour intravenous infusions of Camidanlumab Tesirine every 3 weeks (Q3W) from a starting dose cohort of 20 μg/kg. Subsequent cohorts are enrolled at escalating doses according to a 3+3 design.

advanced melanoma = details: phase III trials; cited from earlier work
[5] = 6 subjects, 20-30 μg/kg Q3W i.v., preliminary

Row | Molecule | clinical response of AML ([1]; 2 subjects with AML who had previously received bone marrow stem cell transfers) | response to treatment ([1]; Patient 1: relapsed AML FAB M0, 30 ug/kg QW cohort, prior allogenic transplant, after 5 cycles) | development of new tumors on re-challenge (MC38 cells [2]) | development of new tumors on re-challenge (CT26 cells) | anti-tumor activity when CD8+ T-cells are depleted (MC38 cells [3]) | number of subjects with stable disease ([4]; 20 μg/kg Q3W) | number of subjects with stable disease ([4]; 30 μg/kg Q3W, reported a few days after the cutoff date) | dose-limiting toxicities ([4]; 6 subjects, 20-30 μg/kg Q3W i.v., 21-day reporting period, preliminary, as of Apr. 16, 2019) | best response recorded (response evaluation criteria in solid tumors) [4, 5] | most common (≥3 pts) adverse events regardless of relationship [4, 5] | related high-grade AEs or serious AEs [4, 5] | overall survival compared to the standard of care (temozolomide or dacarbazine) (advanced melanoma)
1 | ADCx25: human antibody against human CD25 (AB12, HuMax-TAC) attached to a pyrrolobenzodiazepine (PBD) warhead via a cleavable linker | complete remission | CRi | did not develop new tumors | did not develop new tumors | dependent on CD8+ T-cells | 2 | 2 | No dose-limiting toxicities | Stable disease | fatigue and nausea | no reported grade ?3 AEs or serious AEs considered related | 
2 | B1 |  |  |  |  |  |  |  |  |  |  |  | did not significantly increase

Reference: patent US20220111065A1, “MOLECULAR ADJUVANT” (ADC THERAPEUTICS SA, priority 2018, published 2022)
